Legend:
[1] = test system: colon tumor xenograft line OMP-C8; experiment: OMP-C8 colon tumor xenograft growth; type: in vivo, NOD/SCID mice; settings: established tumors, 15 mg/kg once a week
Procedure: The 59R1 IgG2 antibody was also tested in vivo in the breast tumor xenograft lines OMP-B34, OMP-B39, OMP-B44, PE13, and UM-T1, the pancreas tumor xenograft line OMP-PN8, and the colon tumor xenograft line OMP-C8. These tumor xenograft lines were established by adhering to procedures described in Al-Hajj et al., 2003, Proc. Natl. Acad. Sci. USA, 100:3983-3988. Female NOD/SCID immuno-compromised mice 7-10 weeks old were used for the establishment of the breast tumor xenografts and male NOD/SCID mice were used for the OMP-Pn8 and OMP-C8 tumor-models (Harlan, Indianapolis, Ind.). The 59R1 IgG2 antibody was also tested in vivo in a Colo-205 colon tumor xenograft model. Female immunodeficient bg/nu XID mice on a Swiss CD-1 background were used for the Colo-205 xenograft tumor model. In case of the breast cancer models, slow-releasing estrogen pellets (0.36 mg) had to be implanted. Mice were subcutaneously injected on the right flank with 50,000 (OMP-B34, OMP-B39, OMP-B44, PE13, and UM-T1) or 1×10^7 (Colo-205) viable cells, respectively, in a mixture of PBS (without magnesium or calcium) and Matrigel at a 1:1 ratio. […] Antibodies were administered weekly and tumors measured twice weekly. […] Tumor volume was calculated as described Al-Hajj et al. (2003). Data are expressed as the mean and the mean±S.E.M. Group means were compared using Student's two-tailed, unpaired t-test. […]

[2] = test system: PN4 pancreatic tumor cells; experiment: PN4 pancreatic tumor xenograft growth; type: in vivo, NOD/SCID mice
Procedure: In another experiment, anti-Notch2/3 antibodies were tested for an effect on pancreatic tumor growth. NOD/SCID mice were injected with 30,000 PN4 pancreatic tumor cells sub-cu in the right flank, and tumors were allowed to grow until they had reached an average volume of 100 mm^3. Animals were randomized and dosing of anti-Notch2/3 antibody 59R1 or control antibody 1B711 was initiated. Antibodies were dosed at 15 mg/kg given once per week.
PN4 pancreatic tumor cells (50,000 cells per mouse) were injected subcutaneously into the flank region of Nod-Scid mice. Tumors were allowed to grow for 27 days until they had reached an average volume of ˜120 mm^3. Animals were randomized into four treatment groups (n=10/group) and treatments were initiated. One group received a control antibody (1B711) at 10 mg/kg twice per week; one group received gemcitabine at 40 mg/kg once per week plus the control antibody at 10 mg/kg twice per week; one group received 59R1 at 10 mg/kg twice per week, and the fourth group received the combination of 59R1 at 10 mg/kg twice per week and gemcitabine 40 mg/kg once per week. Tumor volumes were measured on the indicated days.

[3] = test system: hDLL4-induced Notch2 signaling; experiment: Luciferase reporter assay, hDLL4-induced Notch2 signaling in Hela cells; type: cell-based, human; settings: antibody titrated from 40 μg/ml
Procedure: Luciferase reporter assays were used to assay the 59R1 antibody for its ability to block hDLL4-, hJAG1-, and hJAG2-induced Notch2 signaling.
Hela cells that stably overexpress human Notch2 were transiently transfected with firefly luciferase with a synthetic 8×CBS promoter (Ong et al., 2006, J. of Biological Chemistry, 281:5106-5119), pSPORT6 MAML-1, and Renilla luciferase-CMV as a transfection control. Cells were incubated with 100 ng of immobilized hDLL4 (R&D systems) with the indicated antibodies for 16 hours and then assayed using Dual-Glo (Promega) according to the manufacturer's instructions. Control antibody was at a concentration of 40 μg/ml. 59R1 IgG2 antibody was titrated, starting at 40 μg/ml, and then diluted by one-fourth. The gamma secretase inhibitor (GSI) dibenzazepine (DBZ) was used as a control at 1 μM.

human Notch3 = human Notch3 (Homo sapiens, UniProt Q9UM47); experiment: DLL4-Fc induced receptor activation in transfected PC3 cells, human Notch3; type: cell-based; design: expressed in transfected cells; host or cells: PC3 tumor cells, transient; settings: immobilized DLL4-Fc
Procedure: 59R5 was determined to have similar activity in blocking Notch2 and Notch3 signaling as 59R1. Receptor activation was determined in luciferase-based assays. PC3 tumor cells were transiently transfected with a human or mouse Notch receptor (human Notch2, murine Notch2, human Notch3, or murine Notch3) and […] inducible reporter construct. Transfected cells were incubated with different concentrations of 59R1 or 59R5 antibody in the presence of passively immobilized DLL4-Fc protein. Notch receptor activation was determined by measuring luciferase activity.

Chain of human Notch3 (Q9UM47 40-2321): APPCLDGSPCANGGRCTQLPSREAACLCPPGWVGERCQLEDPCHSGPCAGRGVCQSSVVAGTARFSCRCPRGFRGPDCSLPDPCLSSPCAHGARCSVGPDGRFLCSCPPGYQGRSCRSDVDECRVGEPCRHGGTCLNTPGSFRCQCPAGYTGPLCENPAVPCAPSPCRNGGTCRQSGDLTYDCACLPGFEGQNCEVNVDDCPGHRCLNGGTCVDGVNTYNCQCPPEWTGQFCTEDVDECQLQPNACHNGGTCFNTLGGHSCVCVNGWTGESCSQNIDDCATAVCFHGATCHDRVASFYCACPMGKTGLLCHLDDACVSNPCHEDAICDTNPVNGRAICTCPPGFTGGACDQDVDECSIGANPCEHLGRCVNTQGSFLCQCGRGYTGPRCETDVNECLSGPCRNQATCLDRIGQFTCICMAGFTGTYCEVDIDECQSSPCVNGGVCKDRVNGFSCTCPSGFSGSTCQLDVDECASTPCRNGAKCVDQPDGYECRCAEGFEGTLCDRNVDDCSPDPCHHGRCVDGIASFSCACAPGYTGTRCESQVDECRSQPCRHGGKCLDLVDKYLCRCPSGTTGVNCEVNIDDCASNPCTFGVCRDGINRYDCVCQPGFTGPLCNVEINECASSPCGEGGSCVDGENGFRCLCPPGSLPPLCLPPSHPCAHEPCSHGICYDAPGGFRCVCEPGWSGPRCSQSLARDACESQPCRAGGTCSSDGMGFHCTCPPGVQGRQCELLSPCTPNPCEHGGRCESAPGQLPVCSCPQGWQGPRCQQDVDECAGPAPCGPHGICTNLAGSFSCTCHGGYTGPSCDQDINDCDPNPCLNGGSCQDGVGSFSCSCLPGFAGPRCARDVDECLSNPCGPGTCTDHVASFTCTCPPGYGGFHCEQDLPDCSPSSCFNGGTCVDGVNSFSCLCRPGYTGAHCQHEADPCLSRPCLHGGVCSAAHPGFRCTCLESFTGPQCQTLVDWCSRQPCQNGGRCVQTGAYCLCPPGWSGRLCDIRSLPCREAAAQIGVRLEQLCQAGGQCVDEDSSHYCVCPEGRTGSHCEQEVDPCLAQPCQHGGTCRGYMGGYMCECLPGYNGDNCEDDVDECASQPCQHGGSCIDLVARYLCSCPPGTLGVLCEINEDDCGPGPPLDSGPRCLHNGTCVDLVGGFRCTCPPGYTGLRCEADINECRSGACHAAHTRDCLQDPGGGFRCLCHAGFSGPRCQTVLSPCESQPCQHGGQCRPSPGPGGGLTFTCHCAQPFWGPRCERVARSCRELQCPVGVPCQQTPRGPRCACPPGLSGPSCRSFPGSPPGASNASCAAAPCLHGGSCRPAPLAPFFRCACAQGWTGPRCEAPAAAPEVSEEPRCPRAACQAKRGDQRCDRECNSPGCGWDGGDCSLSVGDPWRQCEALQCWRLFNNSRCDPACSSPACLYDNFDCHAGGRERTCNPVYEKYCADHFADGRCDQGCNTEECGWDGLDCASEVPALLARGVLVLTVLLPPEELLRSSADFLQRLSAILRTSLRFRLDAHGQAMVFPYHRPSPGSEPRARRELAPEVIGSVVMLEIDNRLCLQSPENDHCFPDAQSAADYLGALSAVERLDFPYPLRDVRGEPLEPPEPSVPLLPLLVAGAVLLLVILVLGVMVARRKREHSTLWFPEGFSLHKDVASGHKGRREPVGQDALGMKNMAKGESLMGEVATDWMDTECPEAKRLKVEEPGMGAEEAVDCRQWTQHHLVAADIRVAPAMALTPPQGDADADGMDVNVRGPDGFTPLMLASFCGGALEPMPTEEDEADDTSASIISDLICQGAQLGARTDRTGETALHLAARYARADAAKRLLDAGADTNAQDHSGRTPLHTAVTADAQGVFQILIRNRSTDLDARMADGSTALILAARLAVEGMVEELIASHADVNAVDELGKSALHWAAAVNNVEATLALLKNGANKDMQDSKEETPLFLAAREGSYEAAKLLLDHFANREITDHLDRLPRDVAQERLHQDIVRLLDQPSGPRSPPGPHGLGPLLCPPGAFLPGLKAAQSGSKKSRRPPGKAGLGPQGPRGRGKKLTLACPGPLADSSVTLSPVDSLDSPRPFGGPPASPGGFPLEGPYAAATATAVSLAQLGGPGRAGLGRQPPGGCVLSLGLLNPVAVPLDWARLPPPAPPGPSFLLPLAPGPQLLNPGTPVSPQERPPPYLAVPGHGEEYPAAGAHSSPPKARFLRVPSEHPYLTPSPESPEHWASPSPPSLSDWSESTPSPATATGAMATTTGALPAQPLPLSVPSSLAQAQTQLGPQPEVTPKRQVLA

Substance | C8 tumor growth relative to LZ1 control antibody [1] | PN4 tumor growth, combination of 59R1 and gemcitabine ([2]; 59R1 10 mg/kg twice per week and gemcitabine 40 mg/kg once per week) | PN4 tumor growth compared to control ([2]; established tumors, 15 mg/kg once per week) | hDLL4-induced Notch2 reporter activity [3] | ligand-induced activation of human Notch3 receptor signaling (human Notch3)
59R1: human IgG2 antibody binding Notch2 and Notch3; heavy and light chain SEQ ID NO:16 and 18; ATCC PTA-9547 | inhibit tumor growth | inhibited | significantly reduced | inhibit | 
59R5: human antibody that specifically binds human Notch 2 and human Notch 3; heavy and light chain SEQ ID NO:49 and 18; ATCC PTA-10170 |  |  |  |  | blocked

Source: patent US8226943B2, “Antibodies to notch receptors” (OncoMed Pharmaceuticals, Inc., priority 2008, dated 2012)
